Columns and labels:
[1] = system: Anthracnose; test: Fluopyram efficacy by fungus (Table 3)
[2] = system: Didymella; settings: Fungus: Didymella
[3] = system: Mycosphaerella; test: Fluopyram efficacy by fungus (Table 3)
[4] = system: Fusarium; test: Fluopyram efficacy by fungus (Table 3)
From the text: (§1) Without wishing to be bound by theory, the applicant hypothesizes that the decreased incidence and severity of SDS observed in plants from seed treated with fluopyram contributes to improved vigor and reduced defoliation, which in turn contributes to improved yield.

[5] = system: Rusts; test: Fluopyram efficacy by fungus (Table 3)
From the text: as §1

[6] = system: Colletotrichum; test: Fluopyram efficacy by fungus (Table 3)
From the text: as §1

[7] = system: Venturia; test: Fluopyram efficacy by fungus (Table 3)
[8] = system: Alternaria; test: Fluopyram efficacy by fungus (Table 3)
[9] = system: sudden death syndrome (SDS); test: Soybean seed treatment: resistance to SDS (incidence, severity, defoliation); assay type: in vivo, Glycine max (L.) Merr.
Procedure: (§2) Soybean seeds (Glycine max (L.) Merr., an indeterminate line) were treated with Trilex® 2000 (7.12% (w/v) trifloxystrobin, 5.69% (w/v) metalaxyl), Gaucho® 600 FS (48.7%, (w/v) imidacloprid), Votivo® 240 FS (21.5%, (w/v) Bacillus firmus strain 1-1582), and fluopyram (41.5%, (w/v)) in the amounts and combinations shown in TABLE 1.
(§3) Seed growth and resistance to SDS were evaluated. Data on the incidence and severity of disease, plant vigor, plant count, plant density, defoliation, and yield were collected. Identification of SDS was based on the visual symptoms described in “Compendium of Soybean Diseases” (Glen Lee Hartman, J. B. Sinclair, and John Clark Rupe, eds. Am. Phytopathological Soc. 1999).
Disease incidence was defined as the percentage of plants in the plot with visible symptoms of SDS. […] The values above each bar in FIG. 1 are the value of that bar along they-axis.
Symptoms of disease severity were determined as percent severity, on a scale of 0% to 100%, by examining the leaf area on the tops of plants and determining the area affected by SDS, expressed as a percentage of the total area. […] The error bars of FIG. 2 represent standard error, and the values above each bar are the value of that bar along the y-axis.
Defoliation was defined as the percentage of plants showing evidence of defoliation in a given plot (i.e., on a scale of 0% to 100%). […] The values above each bar are the value of that bar along the y-axis.

[10] = system: Botrytis; test: Fluopyram efficacy by fungus (Table 3)
[11] = system: Pyrenophora; test: Fluopyram efficacy by fungus (Table 3)
[12] = system: Powdery mildews; settings: Fungus: Powdery mildews
[13] = system: Sclerotinia; test: Fluopyram efficacy by fungus (Table 3)
[14] = system: Sigatoka; test: Fluopyram efficacy by fungus (Table 3)
[15] = system: Monilinia; test: Fluopyram efficacy by fungus (Table 3)
[16] = system: Septoria; settings: Fungus: Septoria
[17] = system: Cylindrocladium; settings: Fungus: Cylindrocladium
[18] = system: soybean plants; test: Soybean seed treatment: plant vigor, count density and yield; assay type: in vivo, Glycine max (L.) Merr.
Procedure: as §2, §3
Vigor ratings, based on visual assessments of plant health, were collected according to the system shown in TABLE 2, with 1 being a healthy and vigorous plant and 6 being extremely low vigor.
The error bars of FIG. 3 represent standard error, and the values within each bar are the value of that bar along the y-axis.
Plant density was calculated as the change in density versus controls. […] The values above or below each bar are the value of that bar along the y-axis.
To determine yield, soybeans were harvested from each plot, weighed, and their moisture content determined. The data from each treatment were normalized to the standard weight of 60 pounds of soybeans at 13% moisture. […] The values above or below each bar are the value of that bar along the y-axis.

Structure (SMILES): O=C(NCCc1ncc(C(F)(F)F)cc1Cl)c1ccccc1C(F)(F)F [Fluopyram, N-{2-[3-chloro-5-(trifluoromethyl)-2-pyridinyl]ethyl}-2-trifluoromethylbenzamide]
- Fluopyram Efficacy [1]: +
- Fluopyram Efficacy [2]: ++
- Fluopyram Efficacy [3]: ++++
- Fluopyram Efficacy ([4]; Fungus: Fusarium): +
- efficacy of fluopyram against Fusarium ([4]; relative to other fungi): low
- Fluopyram Efficacy [5]: +
- Fluopyram Efficacy [6]: ++
- Fluopyram Efficacy [7]: +++
- Fluopyram Efficacy [8]: +++
- Disease incidence (percentage of plants in the plot with visible symptoms of SDS) ([9]; FIG. 1, compared between seeds with and without fluopyram): significantly reduced disease incidence
- Disease severity (percent leaf area affected by SDS) ([9]; FIG. 2, compared between seeds with and without fluopyram): less disease severity
- Defoliation (percentage of plants showing evidence of defoliation in a plot) ([9]; FIG. 5, compared between seeds with and without fluopyram): less defoliation
- Fluopyram Efficacy [10]: ++++
- Fluopyram Efficacy [11]: +++
- Fluopyram Efficacy [12]: ++++
- Fluopyram Efficacy [13]: ++++
- Fluopyram Efficacy [14]: ++++
- Fluopyram Efficacy [15]: ++++
- Fluopyram Efficacy [16]: ++
- Fluopyram Efficacy [17]: ++
- Count density (change in plant density versus control) ([18]; fluopyram alone, 0.17-0.67 mga/seed (columns 4-6), FIG. 4, versus control): decreased count density
- Vigor (visual vigor rating, scale 1-6 of Table 2) ([18]; soybean seed treatment, FIG. 3): not adversely affected
- Percent yield versus control ([18]; soybean seed treatment, FIG. 6, normalized to 60 pounds at 13% moisture, versus seeds not treated with fluopyram): greater percent yield

From patent US11140903B2, “Fungicidal compositions and methods” (Bayer CropScience LP, priority 2010, dated 2021)
